Reference: US20240173231A1, “COSMETIC SKIN CARE COMPOSITION” (Conopco, Inc., d/b/a UNILEVER, priority 2021, published 2024)
Marks after values point to notes of the source that are not given here.

Legend:
Type in all cases: cell-based, human
YAP/TAZ = assay: Nuclear translocation assay to identify activators of YAP/TAZ bioactivity, fibroblasts on fibronectin micro-islands; conditions: for Mechano-transduction Activation (% Increase): 20 uM, 2 hours, YAP/TAZ nucleus/cytoplasm ratio normalised to control and LPA; for Induction of mechano-transduction signaling (translocation of cytoplasmic YAP/TAZ into the nucleus), in words: over the vehicle DMSO
Experimental: Cellular localization of YAP can be regulated by the rigidity of the substrate or ECM that cells are attached to, or the degree to which cells can spread on a substrate. Thus in vitro models can be useful to engineer low states of YAP activity.
Briefly, primary human dermal fibroblasts were seeded on microprinted substrate islands (<1000 μm^2) of fibronectin and incubated overnight at 37° C., 5% CO2 in a cell culture incubator. Next, fibroblasts were treated with materials described in Table 1. After the treatment period of 2 hours, cells were fixed and stained: nuclei were stained with Hoechst dye and YAP/TAZ was stained with a mouse antibody to YAP/TAZ (Santa Cruz Biotechnology), followed by the secondary fluorescently tagged antibody (donkey anti-mouse AlexaFluor 488). Microscopic images were acquired and YAP/TAZ fluorescent signal measured in the cytoplasm and nucleus of each cell. The fluorescence intensity measured in the nucleus is divided by the one measured in the cytoplasm to obtain the YAP/TAZ ratio readout as described below Table 1.

procollagen-I = assay: Procollagen type 1 C-peptide (PIP) EIA on media of dermal fibroblasts on soft hydrogel; conditions: for Procollagen: day 6; for Effect on procollagen-I synthesis in human dermal fibroblasts, in words: substrates mimicking the biomechanical properties of skin
Experimental: Since YAP activity is highly dependent on substrate rigidity it was necessary to develop and perform assays on substrates with tunable mechanical properties.
Primary human dermal fibroblasts (P3) are plated at 31,579 cells per cm2 into 24-well […] collagen coated hydrogel plates in 1 ml 2% fetal bovine serum in Dulbecco's Modified Eagles Media (DMEM) and maintained 24 hours in a cell culture incubator at 5% carbon dioxide. The cells were washed twice with Dulbecco's Phosphate Buffered Saline then 1 ml of DM EM supplemented with 0.6% fatty acid free bovine serum albumin. The cells were maintained for 24 hours in a cell culture incubator at 5% carbon dioxide.
Two hundred microliter of media was removed from each well. To each well were added 100 ul of 500 ug per ml ascorbic acid in DMEM supplemented with 0.6% fatty acid free bovine serum albumin. Test materials were diluted to 10X final concentration in DMEM supplemented with 0.6% fatty acid free bovine serum albumin or PBS supplemented with 0.1% fatty acid free bovine serum albumin and 100 ul dosed to duplicate wells. The cells/plates were incubated for 3 days at 37° C., 5% CO2 in a cell culture incubator. On day 3 the media was removed from the wells and 900u1 DMEM supplemented with 0.6% fatty acid free bovine serum albumin plus 50 ug/ml ascorbic acid. The treatments were added as described above. On day 6 after the start of treatment remove 100 ul of the media from each well for the determination of the level of procollagen.
The amount of procollagen in the media samples was determined using the Takara Bio Procollagen type 1 C-peptide (PIP) detection EIA assay. The assay was run following the manufacturer's instructions as following—100 ul of the reconstituted antibody-POD conjugate to the wells of the assay for the number required for the media samples and the standard curve. The procollagen standard solution was 2-fold serial diluted using sample diluent to generate a standard curve of 640, 320, 160, 80, 40, 20, 10 and 0 ng/ml procollagen. The media samples were diluted 1/20 with sample diluent. Twenty ul of the standard curve dilutions were added to the wells of the assay plate in duplicate. The 20 ul media dilutions in sample diluent were added to the wells of the assay plate in singlet. The plate was incubated for 3 hours at 37° C., washed 4 times with phosphate buffered saline wash buffer and tapped to remove all residual wash buffer. One hundred ul of substrate solution (TMBZ) was added to each well and incubate 15 minutes. One hundred ul of stop solution was added to each well, the plate shaken to mix and the optical density at 450 nm read in a plate reader. The amount of procollagen in the test samples was calculated from the standard curve values and corrected for the dilution factor and the volume in the well to generate the ng of procollagen in the samples. The amount of procollagen induced by the test materials was compared to the basal media.

[1] = test system: CRABPII (cellular retinoic acid binding protein II); assay: CRABPII gene expression by TaqMan real time PCR in dermal fibroblasts
Experimental: (§1) Primary human dermal fibroblasts (P3) are plated at 31,579 cells per cm^2 into 6-well 2 kPa hydrogel collagen coated plates in 2 ml 2% fetal bovine serum in Dulbecco's Modified Eagles Media (DMEM) and maintained 24 hours in a cell culture incubator at 5% carbon dioxide. The cells were washed twice with Dulbecco's Phosphate Buffered Saline DPBS) then 1 ml of DMEM supplemented with 0.6% fatty acid free bovine serum albumin (FAF-BSA). The cells were maintained for 24 hours in a cell culture incubator at 5% carbon dioxide. Four hundred ul of media was removed from each well of the plates. Two hundred ul of the YAP active treatments diluted at 10X the desired final concentration plus 1% DMSO were diluted in DMEM supplemented with 0.6% fatty acid free bovine serum albumin. The control wells were treated with two hundred ul of 1% DMSO were diluted in DMEM supplemented with 0.6% fatty acid free bovine serum albumin. Two hundred ul of water-soluble YAP actives diluted at 10X the desired final concentration diluted in DPBS+0.1% FAF-BSA. The controls wells were treated with 200 ul DPBS+0.1% FAF-BSA. The plates were incubated overnight at 37° C. at 5% CO2. In the AM the plates were dosed with the 220 ul of the water-soluble YAP actives in DPBS +0.1% FAF-BSA or the control well with 220 ul DPBS +0.1% FAF-BSA. After 6 hours the media was aspirate from the wells, the cells washed 2X with DPBS and the plate frozen at -80 °C until the RNA was isolated.
700 ul of RLT buffer plus beta-mercaptoethanol was added to each well immediately after removing the plate from the freezer. The plate was placed on an orbital shaker at 500 revolution per minute up for 15 minutes while the buffer thawed and extracted the cells. […] The RNA samples were quantitated on a NanoDrop 800 and quantity access on an Agilent Bio-analyzer. […] The cDNA samples were evaluated for the expression level of select markers using comparative Taqman analysis using 2 ul of the cDNA per reaction. […]
An independent experiment was conducted using cell culture and RNA isolation methods described in Example 2 to further elucidate the retinyl propionate+ORG synergy (as observed in Table 4) by analyzing a well-described marker of a retinoid activity CRABPII (cellular retinoic acid binding protein II). […] Then, 10 ng cDNA samples per reaction were evaluated for the expression level of CRABPII using primers and comparative TaqMan™ Gene Expression Assay and TaqMan™ Fast Advanced Master (FAM) Mix (purchased from Applied Biosystems™) and run in a ViiA™ 7 Real Time PCR System (from Applied Biosystems™). Percent increases in CRABPII expression was calculated by converting the log2fold-change to a percentage increase using the following formula: Percent increase=100*(2^log2FC)-100.

ELN = assay: mRNA gene expression in dermal fibroblasts on 2 kPa hydrogel (RNA-seq); conditions: vs. Vehicle
Experimental: as §1
(§2) The RNA was isolated using the Qiagen RNeasy mini kit following the manufacturer's instruction with the following modifications—
(§3) 700 ul of RLT buffer plus beta-mercaptoethanol was added to each well immediately after removing the plate from the freezer. The plate was placed on an orbital shaker at 500 revolution per minute up for 15 minutes while the buffer thawed and extracted the cells. The cell lysate was transfer to Qiashedders and pass the Qiashedder to disrupt the cells. The recovery lysate was mixed with an equal volume of 70% Ethanol, 30% water. The RNA was purified on the minicolumns including the DNase step to remove DNA contamination. The RNA samples were quantitated on a NanoDrop 800 and quantity access on an Agilent Bio-analyzer. An aliquot of the RNA samples was reverse transcribed in cDNA then diluted to 5 ng/ul of input RNA. The cDNA samples were evaluated for the expression level of select markers using comparative Taqman analysis using 2 ul of the cDNA per reaction. The level of RNA expression was compared using the delta delta Cycle threshold (ddCt) method. Aliquot of the RNAs were also submitted to Lexogen (Vienna, Austria) for RNA-seq analysis.
(§4) Shown in Table 5 is the average percent increase in mRNA expression for genes involved in extracellular matrix production following ORG treatment relative to the vehicle control, along with the Benjamini-Hochberg adjusted p-values (adj.p.value) calculated by converting the average log2fold-change (calculated using DESeq2) to a percentage increase using the following formula: Percent increase=100*(2^log2FC)-100.

COL4A1 = assay: as above; conditions: vs. Vehicle
Experimental: as §1, §2, §3, §4

COL5A1 = assay: as above; conditions: vs. Vehicle
Experimental: as §1, §2, §3, §4

HAS2 = assay: as above; conditions: vs. Vehicle
Experimental: as §1, §2, §3, §4

COL3A1 = assay: as above; conditions: vs. Vehicle
Experimental: as §1, §2, §3, §4

COL1A1 = assay: as above; conditions: vs. Vehicle
Experimental: as §1, §2, §3, §4

FBN1 = assay: as above; conditions: vs. Vehicle
Experimental: as §1, §2, §3, §4

FN1 = assay: as above; conditions: vs. Vehicle
Experimental: as §1, §2, §3, §4

[2] = Experiment 1, 50 μM, vehicle control 1933.3
[3] = Experiment 2, 50 μM, vehicle control 2240.5

In the case of `CCCCCCCCCCCCCCC(=O)OCC(O)CO` (racemic) [1-Pentadecanoyl-rac-glycerol], the “Mechano-transduction Activation (% Increase)” value (YAP/TAZ) was 25 +/− 26% and the “Induction of mechano-transduction signaling (translocation of cytoplasmic YAP/TAZ into the nucleus), in words” value (YAP/TAZ) was “do not induce mechano-transduction”.

`CCCCCCCCCCCCCCCCCC(=O)OCC(O)CO` (racemic) [1-Stearoyl-rac-glycerol] was tested, and the “Mechano-transduction Activation (% Increase)” value (YAP/TAZ) was 6 +/− 7% and the “Induction of mechano-transduction signaling (translocation of cytoplasmic YAP/TAZ into the nucleus), in words” value (YAP/TAZ) was “do not induce mechano-transduction”.

With `CCCCCCCC/C=C\CCCCCCCC(=O)OCC(O)CO` (racemic) [1-oleoyl-rac-glycerol] the “Mechano-transduction Activation (% Increase)” value (YAP/TAZ) was 17 +/− 10 ** % and the “Induction of mechano-transduction signaling (translocation of cytoplasmic YAP/TAZ into the nucleus), in words” value (YAP/TAZ) was “significantly induces mechano-transduction signaling”.

With `CC(C)c1cc2c(cc1O)[C@@]1(C)CC[C@H](O)C(C)(C)[C@@H]1CC2` [Hinokiol] the Procollagen (procollagen-I; [2]) was 1946.1 ng/mL, the Procollagen (procollagen-I; [3]) was 1843.5 ng/mL and the “Effect on procollagen-I synthesis in human dermal fibroblasts, in words” value (from here on “Effect on procollagen-I synthesis”) (procollagen-I) was “do not exhibit such a pronounced effect”.

For `CCCCCCCC/C=C\CCCCCCCC(=O)OC[C@@H](O)COP(=O)([O-])O.[Na+]` [LPA, Lysophosphatidic acid], the “Mechano-transduction Activation (% Increase)” value (YAP/TAZ) was 100 +/− 1 ** %, the “Induction of mechano-transduction signaling (translocation of cytoplasmic YAP/TAZ into the nucleus), in words” value (YAP/TAZ) was “induces mechano-transduction signaling” and the Procollagen (procollagen-I; Experiment 1, 30 μM, vehicle control 1933.3) was 3532.6 ng/mL. It also gave a Procollagen (procollagen-I; Experiment 2, 30 μM, vehicle control 2240.5) of 3381.3 ng/mL.

`C=CCc1ccc(O)c(-c2cc(CC=C)ccc2O)c1` [Magnolol] was tested, and the Procollagen (procollagen-I; [3]) was 2512.8 ng/mL and the “Effect on procollagen-I synthesis” value (procollagen-I) was “do not exhibit such a pronounced effect”.

With `CCCCCCCC/C=C\CCCCCCCC(=O)NCC(=O)O` [Oleoyl Glycinate] the Procollagen (procollagen-I; [2]) was 2474.9 ng/mL and the “Effect on procollagen-I synthesis” value (procollagen-I) was “do not exhibit such a pronounced effect”.

`CCC(=O)OC/C=C(C)/C=C/C=C(C)/C=C/C1=C(C)CCCC1(C)C` [retinyl propionate] was tested, and the “Effect on CRABPII gene expression, in words” value [1] was “robust increase in CRABPII gene expression”, the “Percent Increase in CRABPII Gene Expression vs Vehicle” value ([1]; 10 μM) was 138% and the Procollagen (procollagen-I; Experiment 3, 10 μM, vehicle control 1301.9) was 1452.0 ng/mL. The “Effect on procollagen-I synthesis” value (procollagen-I) was “do not exhibit such a pronounced effect”.

With oleoyl-rac-glycerol [ORG (Monomuls ®)] the “Effect on CRABPII gene expression, in words” value [1] was “more modest increase”, the “Percent Increase in CRABPII Gene Expression vs Vehicle” value ([1]; 50 μM) was 54% and the “ELN mRNA expression, Percent Increase” value (ELN) was 18.49%. For the same compound, the “COL4A1 mRNA expression, Percent Increase” value (COL4A1) was 20.36%, the “COL5A1 mRNA expression, Percent Increase” value (COL5A1) was 10.73% and the “HAS2 mRNA expression, Percent Increase” value (HAS2) was 164.75%. For the same compound, the “COL3A1 mRNA expression, Percent Increase” value (COL3A1) was 15.35%, the “COL1A1 mRNA expression, Percent Increase” value (COL1A1) was 21.16% and the “FBN1 mRNA expression, Percent Increase” value (FBN1) was 12.36%. For the same compound, the “FN1 mRNA expression, Percent Increase” value (FN1) was 15.49%, the Procollagen (procollagen-I; [2]) was 3084.2 ng/mL and the Procollagen (procollagen-I; [3]) was 3256.8 ng/mL. For the same compound, the Procollagen (procollagen-I; Experiment 3, 50 μM, vehicle control 1301.9) was 2275.4 ng/mL and the “Effect on procollagen-I synthesis” value (procollagen-I) was “promotes the synthesis of procollagen-I”.
